These results are taken from publication doi:10.1101/415984v3 (biorxiv, 2018).

Usually Kd stands for the constant that tells how readily two partners part at equilibrium. High values mean a looser complex, low ones a tighter complex.

Assay [1] has as its target T1, dFABP (Drosophila brain-type FABP) (Drosophila melanogaster, UniProt Q9VGM2).
T1 sequence (Q9VGM2 1-130): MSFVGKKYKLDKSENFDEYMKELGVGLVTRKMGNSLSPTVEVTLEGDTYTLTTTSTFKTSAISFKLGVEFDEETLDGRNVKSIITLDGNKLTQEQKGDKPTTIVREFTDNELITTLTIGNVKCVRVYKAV
The experiment in a line: intrinsic tyrosine fluorescence melting. It counts as binding. As to conditions: GuHCl-purified dFABP; protein:OA 1:2; 20 mM Tris pH 8.0, 1 mM beta-ME.

Assay [2] has as its target T1, dFABP (Drosophila brain-type FABP). The experiment in a line: isothermal titration calorimetry. In kind it is binding. (ITC needs no label: the signal is the heat of the interaction.)

For the compound `CCCCCCCC/C=C\CCCCCCCC(=O)O` [OA, oleic acid], the “change in Tm” value in assay [1] is ~ 5 °C. The same compound registered a Kd in assay [2] of around 1600 nM.
